Laboratory results taken from ChEMBL document CHEMBL5223082, “Alkyl-Aryl-Vancomycins: Multimodal Glycopeptides with Weak Dependence on the Bacterial Metabolic State” (J Med Chem, 2021).
Calls of active or inactive are those of the source. The rule behind the calls is not given here.

Key:
Staphylococcus aureus [1] = assay: Antibacterial activity against Methicillin-resistant Staphylococcus aureus ATCC 33591 assessed as inhibition of bacterial growth incubated for 18 to 24 hrs by CLSI microbroth dilution method; format: functional; conditions: time 18-24 hrs
Staphylococcus aureus [2] = assay: Antibacterial activity against Vancomycin-resistant Staphylococcus aureus 1 assessed as inhibition of bacterial growth incubated for 18 to 24 hrs by CLSI microbroth dilution method; format: functional; conditions: time 18-24 hrs
Staphylococcus aureus [3] = assay: Antibacterial activity against Vancomycin-resistant Staphylococcus aureus 4 assessed as inhibition of bacterial growth incubated for 18 to 24 hrs by CLSI microbroth dilution method; format: functional; conditions: time 18-24 hrs
Staphylococcus aureus [4] = assay: Antibacterial activity against Vancomycin-resistant Staphylococcus aureus 12 assessed as inhibition of bacterial growth incubated for 18 to 24 hrs by CLSI microbroth dilution method; format: functional; conditions: time 18-24 hrs
Staphylococcus aureus [5] = assay: Potency index, ratio of Vancomycin MIC to test compound MIC for antibacterial activity against Vancomycin-resistant Staphylococcus aureus 1; format: functional
Staphylococcus aureus [6] = assay: Potency index, ratio of Vancomycin MIC to test compound MIC for antibacterial activity against Vancomycin-resistant Staphylococcus aureus 4; format: functional
Staphylococcus aureus [7] = assay: Potency index, ratio of Vancomycin MIC to test compound MIC for antibacterial activity against Vancomycin-resistant Staphylococcus aureus 12; format: functional
Enterococcus [8] = assay: Potency index, ratio of Vancomycin MIC to test compound MIC for antibacterial activity against Vancomycin-resistant Enterococci NR30903; format: functional, NR 30903
Enterococcus [9] = assay: Potency index, ratio of Vancomycin MIC to test compound MIC for antibacterial activity against Vancomycin-resistant Enterococci NR30909; format: functional, NR 30909
[10] = Cytotoxicity against human HEK293 cells assessed as cell viability at 0.5 to 30 uM incubated for 24 hrs by AlamarBlue assay; format: toxicity, cell-based; conditions: dose 0.5-30 µM, read-out: Activity
HEK293 = assay: Cytotoxicity against human HEK293 cells at 30 uM incubated for 24 hrs by calceinAM/PI staining based fluorescence microscopy; format: toxicity, cell-based; conditions: hek293, 24 h
Staphylococcus aureus [11] = assay: Bactericidal activity against methicillin-resistant Staphylococcus aureus ATCC 33591 incubated for 24 hrs in broth solution followed by culturing for 24 hrs on agar plate by spot plating method; format: functional; conditions: time 48 hrs
Staphylococcus aureus [12] = assay: Bactericidal activity against methicillin-resistant Staphylococcus aureus ATCC 33591 assessed as log reduction in bacterial colonies incubated for 4 hrs in broth solution followed by culturing for 24 hrs on agar plate by spot plating method; format: functional; conditions: time 28 hrs
Staphylococcus aureus [13] = assay: Bactericidal activity against methicillin-resistant Staphylococcus aureus ATCC 33591 assessed as eradication of viable bacterial cells at 4XMIC incubated for 6 hrs in broth solution followed by culturing for 24 hrs on agar plate by spot plating method; format: functional; conditions: time 30 hrs
Enterococcus [14] = assay: Bactericidal activity against Vancomycin-resistant Enterococci assessed as reduction in bacterial colonies at MIC to 2XMIC incubated for 6 hrs in broth solution followed by culturing for 24 hrs on agar plate by spot plating method; format: functional, organism-based; conditions: time 30.0 hrs
Enterococcus [15] = assay: Bactericidal activity against Vancomycin-resistant Enterococci assessed as log reduction in bacterial colonies at 4XMIC incubated for 24 hrs in broth solution followed by culturing for 24 hrs on agar plate by spot plating method; format: functional; conditions: time 48 hrs
Cell membrane [16] = assay: Induction of cytoplasmic membrane depolarization in Methicillin-resistant Staphylococcus aureus ATCC 33591 assessed as increase in fluorescence intensity at 10 uM measured for 35 to 40 mins by DiSC3(5) dye based fluorescence analysis; format: subcellular; conditions: time 35-40 min
Cell membrane [17] = assay: Induction of cytoplasmic membrane depolarization in Bacillus subtilis assessed as increase in fluorescence intensity at 10 uM measured for 35 to 40 mins by DiSC3(5) dye based fluorescence analysis; format: subcellular; conditions: time 35-40 min
Cell membrane [18] = assay: Induction of cytoplasmic membrane depolarization in Vancomycin-resistant Enterococci assessed as increase in fluorescence intensity at 10 uM measured for 35 to 40 mins by DiSC3(5) dye based fluorescence analysis; format: subcellular; conditions: Enterococcus, time 35-40 min
Cell membrane [19] = assay: Induction of cytoplasmic membrane permeabilization in Methicillin-resistant Staphylococcus aureus ATCC 33591 assessed as increase in fluorescence intensity at 10 uM measured for 30 to 40 mins by Propidium iodide staining based fluorescence analysis; format: subcellular; conditions: time 30-40 min
Cell membrane [20] = assay: Induction of cytoplasmic membrane permeabilization in Bacillus subtilis assessed as increase in fluorescence intensity at 10 uM measured for 30 to 40 mins by Propidium iodide staining based fluorescence analysis; format: subcellular; conditions: time 30-40 min
Bacillus subtilis = assay: Antibacterial activity against Bacillus subtilis 168 assessed as concentration that requires for bacterial growth retardation measured for every 30 mins; format: functional
[21] = molecular target: T1, Septum site-determining protein MinD (Bacillus subtilis (strain 168)) (UniProt Q01464); assay: Delocalization of GFP tagged-MinD in Bacillus subtilis 168 at MIC incubated for 15 mins by fluorescence microscopy
T1 sequence (whole entry): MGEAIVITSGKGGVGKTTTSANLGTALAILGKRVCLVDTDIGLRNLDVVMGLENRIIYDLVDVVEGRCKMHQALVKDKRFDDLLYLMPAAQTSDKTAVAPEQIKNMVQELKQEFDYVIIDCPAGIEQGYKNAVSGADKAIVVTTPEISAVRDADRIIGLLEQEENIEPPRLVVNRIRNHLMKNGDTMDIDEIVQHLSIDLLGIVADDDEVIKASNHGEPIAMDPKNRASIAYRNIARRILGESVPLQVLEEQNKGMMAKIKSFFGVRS

Staphylococcus aureus [22] = assay: Antibacterial activity against stationary phase of Methicillin-resistant Staphylococcus aureus ATCC 33591 assessed as log reduction in bacterial colonies at 4.5 uM incubated for 12 hrs in broth solution followed by incubation on agar plate for 48 hrs by spot plating method; format: functional; conditions: time 60 hrs
Staphylococcus aureus [23] = assay: Antibacterial activity against stationary phase of Methicillin-resistant Staphylococcus aureus ATCC 33591 assessed as log reduction in bacterial colonies at 4.5 uM incubated for 24 hrs in broth solution followed by incubation on agar plate for 48 hrs by spot plating method; format: functional; conditions: time 72 hrs
Staphylococcus aureus [24] = assay: Antibacterial activity against stationary phase of Methicillin-resistant Staphylococcus aureus ATCC 33591 assessed as log reduction in bacterial colonies at 22 uM incubated for 24 hrs in broth solution followed by incubation on agar plate for 48 hrs by spot plating method; format: functional; conditions: time 72 hrs
Staphylococcus aureus [25] = assay: Antibacterial activity against Methicillin-resistant Staphylococcus aureus ATCC 33591 persister cells assessed as log reduction in bacterial colonies at 9 uM incubated for 2 hrs in broth solution followed by incubation on agar plate for 48 hrs by spot plating method; format: functional; conditions: time 50 hrs
Staphylococcus aureus [26] = assay: Antibacterial activity against Methicillin-resistant Staphylococcus aureus ATCC 33591 assessed as inhibition of bacterial growth measured after 27 passages; format: functional
Staphylococcus aureus [27] = assay: Antibacterial activity against Methicillin-resistant Staphylococcus aureus ATCC 33591 assessed as inhibition of bacterial growth incubated for 18 to 24 hrs in presence of 50% human liver homogenate by CLSI microbroth dilution method; format: functional; conditions: ATCC 33591, Liver, time 18-24 hrs
[28] = Toxicity in BALB/c mouse assessed as adverse effects at 55.5 mg/kg, iv measured for 4 hrs; format: organism-based; conditions: in vivo
[29] = Toxicity in BALB/c mouse assessed as animal's survival rate at 55.5 mg/kg, iv measured for 14 days; format: organism-based; conditions: in vivo, time 14 day
[30] = Hepatotoxicity in mouse assessed as plasma ALT level at 12 mg/kg, ip measured after 48 hrs; format: toxicity, organism-based; conditions: in vivo

## CCCCCCCCCCNC(=O)C[N+](C)(C)CCCNC(=O)c1ccc(CN[C@@]2(C)C[C@H](O[C@H]3[C@H](Oc4c5cc6cc4Oc4ccc(cc4Cl)[C@@H](O)[C@@H](NC(=O)[C@@H](CC(C)C)NC)C(=O)N[C@@H](CC(N)=O)C(=O)N[C@H]6C(=O)N[C@H]4C(=O)N[C@H](C(=O)N[C@H](C(=O)O)c6cc(O)cc(O)c6-c6cc4ccc6O)[C@H](O)c4ccc(c(Cl)c4)O5)O[C@H](CO)[C@@H](O)[C@@H]3O)O[C@@H](C)[C@H]2O)cc1
Staphylococcus aureus [1]
  MIC: 0.9 µM
Staphylococcus aureus [2]
  MIC: 1.8 µM
Staphylococcus aureus [3]
  MIC: 0.45 µM
Staphylococcus aureus [4]
  MIC: 0.9 µM
Staphylococcus aureus [5]
  Ratio: 1384
Staphylococcus aureus [6]
  Ratio: 1384
Staphylococcus aureus [7]
  Ratio: 1384
Enterococcus [8]
  Ratio: 1384
Enterococcus [9]
  Ratio: 1384
[10]
  viability at 24 h, up to 30 µM: 100%
HEK293
  Activity: Non-Toxic
Staphylococcus aureus [11]
  MBC: 0.9 µM
Staphylococcus aureus [12]
  Activity: 3 log10CFU/ml
Staphylococcus aureus [13]
  Activity: 100%
Enterococcus [14]
  Activity: inactive
Enterococcus [15]
  Activity: 5 log10CFU/ml
Cell membrane [16]
  Activity: Active
Cell membrane [17]
  Activity: Active
Cell membrane [18]
  Activity: Active
Cell membrane [19]
  Activity: Active
Cell membrane [20]
  Activity: Active
Bacillus subtilis
  EC: 0.06 µM
[21]
  Activity: 25%
Staphylococcus aureus [22]
  Activity: 1.4 log10CFU/ml
Staphylococcus aureus [23]
  Activity: 2 log10CFU/ml
Staphylococcus aureus [24]
  Activity: 7 log10CFU/ml
Staphylococcus aureus [25]
  Activity: 2 log10CFU/ml
Staphylococcus aureus [26]
  MIC: 0.9 µM
Staphylococcus aureus [27]
  MIC: 0.9 µM
[28]
  Activity: Non-Toxic
[29]
  survival at 336 h: 100%
[30]
  Activity: 62.25 U/L
